These results are taken from patent US10988523B2, “Modified lipidated Relaxin B chain peptides and their therapeutic use” (Sanofi, priority 2018, dated 2021).

Data set [1] deals with T1, RXFP1 (Homo sapiens, UniProt Q9HBX9).
T1 construct: OVCAR5 cells expressing endogenous RXFP1; endogenous in cells; host or cells: OVCAR5 cells
T1 sequence (Q9HBX9 1-757): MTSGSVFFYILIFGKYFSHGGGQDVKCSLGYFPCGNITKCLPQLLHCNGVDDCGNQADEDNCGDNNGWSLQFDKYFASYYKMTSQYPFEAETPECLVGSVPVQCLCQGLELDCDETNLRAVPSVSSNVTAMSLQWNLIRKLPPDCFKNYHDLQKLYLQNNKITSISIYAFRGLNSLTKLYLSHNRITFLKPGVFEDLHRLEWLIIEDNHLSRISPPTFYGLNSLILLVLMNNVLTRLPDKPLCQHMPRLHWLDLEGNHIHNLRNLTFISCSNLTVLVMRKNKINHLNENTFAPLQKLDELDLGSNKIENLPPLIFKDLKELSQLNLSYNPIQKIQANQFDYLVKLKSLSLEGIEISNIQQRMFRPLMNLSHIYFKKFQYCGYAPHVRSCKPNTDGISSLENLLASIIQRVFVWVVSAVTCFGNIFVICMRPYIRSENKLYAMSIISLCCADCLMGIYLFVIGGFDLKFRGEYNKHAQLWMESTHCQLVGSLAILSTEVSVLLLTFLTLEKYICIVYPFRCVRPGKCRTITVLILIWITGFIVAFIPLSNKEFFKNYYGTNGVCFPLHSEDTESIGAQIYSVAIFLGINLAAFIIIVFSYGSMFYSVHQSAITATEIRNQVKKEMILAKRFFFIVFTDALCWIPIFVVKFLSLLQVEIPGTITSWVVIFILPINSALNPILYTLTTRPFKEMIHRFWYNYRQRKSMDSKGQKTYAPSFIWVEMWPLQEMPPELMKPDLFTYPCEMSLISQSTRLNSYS
The experiment in a line: OVCAR5 cAMP assay (HTRF), RXFP1 agonist activity. The class given is cell-based. As to conditions: for EC50: OVCAR5 cells, cAMP HTRF, read-out: EC50 (nM), OVCAR 5 cells (cAMP); for Emax: OVCAR-5, maximal cAMP relative to H2-relaxin maximum (100%), read-out: EMax, OVCAR 5 cells (cAMP). The essentials: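 OVCAR5 cells (endogenous RXFP1) pretreated 40 min at 37° C with 1 mM IBMX, then exposed to peptides in serum-free medium for 30 min at 37° C. Lysate cAMP read by HTRF; EC50 from variable-slope sigmoidal fit; Emax as % of H2-relaxin maximal cAMP in same run.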

Data set [2] in a line: Pharmacokinetic (PK) determination after i.v. or s.c. administration to rats. The class given is in vivo, Sprague Dawley rats. Conditions: Sprague Dawley, Rat PK; for C0 / half-life: iv, 1 mg/kg i.v.; for C0: extrapolated plasma concentration at t=0, read-out: C0; for half-life / Cmax / Tmax / bioavailability: plasma; for half-life: read-out: T½ (converted); for Cmax / Tmax: sc, 3 mg/kg s.c.; for bioavailability: subcutaneous, 3 mg/kg s.c. vs 1 mg/kg i.v., dose-corrected AUC ratio. Summed up:
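Sprague Dawley rats received peptide in PBS at 1 mg/kg i.v. or 3 mg/kg s.c., dose corrected for salts, solvent and purity. Plasma analysed by LC/MS after protein precipitation; non-compartmental PK, BLQ values set to zero, F% as dose-corrected s.c./i.v. AUC ratio.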

*1 amine or outer side, *2 acyl side, *3 side chain or, on linkers, in order; H or OH if unused. Where a SMILES comes first, the peptide text is derived from it. Side-chain parts run from the residue outwards. [ ]: non-standard residue; d: D form. The star is where a group is joined. PEG12 = NCCOCCOCCOCCOCCOCCOCCOCCOCCOCCOCCOCCOCCC(=O)O; γGlu = O=C(O)[C@H](CCC(=O)[*:2])N[*:1]; 1Nal = N[C@@H](Cc1cccc2ccccc12)C(=O)O; Stearoyl = CCCCCCCCCCCCCCCCCC(=O)*; Palmitoyl = CCCCCCCCCCCCCCCC(=O)*; αMeK = C[C@](N)(CCCCN)C(=O)O; Nle = CCCC[C@H](N)C(=O)O; AEEA = NCCOCCOCC(=O)O; Aib = CC(C)(N)C(=O)O

Consider `CCCCCCCCCCCCCCCC(=O)N[C@@H](CCC(=O)N[C@@H](CCC(=O)N[C@@H](CCC(=O)N[C@@H](CCC(=O)NCCCC[C@H](NC(=O)COCCOCCNC(=O)COCCOCCNC(=O)COCCOCCNC(=O)[C@H](CCCCNC(C)=O)NC(=O)[C@H](CCCCN)NC(=O)[C@H](CCCNC(=N)N)NC(=O)[C@](C)(CCCCN)NC(=O)[C@H](CO)NC(=O)[C@H](Cc1c[nH]c2ccccc12)NC(=O)[C@@H](NC(=O)[C@H](CO)NC(=O)[C@H](CCCC)NC(=O)CNC(=O)[C@H](CCC(=O)O)NC(=O)C(C)(C)NC(=O)C(C)(C)NC(=O)[C@@H](NC(=O)[C@H](CCCCNC(C)=O)NC(=O)[C@H](C)NC(=O)[C@H](CCCNC(=N)N)NC(=O)[C@@H](NC(=O)[C@H](CCCCN)NC(=O)[C@H](CCC(=O)O)NC(=O)[C@H](CCCNC(=N)N)NC(=O)CNC(=O)[C@H](CCC(=O)O)NC(=O)[C@H](CC(C)C)NC(C)=O)C(C)C)[C@@H](C)CC)[C@@H](C)O)C(N)=O)C(=O)O)C(=O)O)C(=O)O)C(=O)O` [compound 17] (Ac-LEGREKVRAK(Ac)I[Aib][Aib]EG[Nle]STWS[αMeK]RKK(Ac)[AEEA][AEEA][AEEA]K([γGlu-γGlu-γGlu-γGlu-Palmitoyl])-NH2), for which, in data set [1], the EC50 turned out to be 0.17 nM and the Emax amounted to 95%. Also, in data set [2], the C0 is 3500 nM, the half-life is 5.8 h, the highest concentration (Cmax) stood at 2400 nM and the Tmax came out at 8 h. Also, in data set [2], the bioavailability stood at 73%.

In the case of `CCCCCCCCCCCCCCCC(=O)N[C@@H](CCC(=O)NCCCC[C@H](NC(=O)CC[C@H](NC(=O)CC[C@H](NC(=O)CC[C@H](NC(=O)COCCOCCNC(=O)COCCOCCNC(=O)COCCOCCNC(=O)COCCOCCNC(=O)[C@H](CCCCNC(C)=O)NC(=O)[C@H](CCCCN)NC(=O)[C@H](CCCNC(=N)N)NC(=O)[C@](C)(CCCCN)NC(=O)[C@H](CO)NC(=O)[C@H](Cc1ccccc1)NC(=O)[C@@H](NC(=O)[C@H](CO)NC(=O)[C@H](CCCC)NC(=O)CNC(=O)[C@H](CCC(=O)O)NC(=O)C(C)(C)NC(=O)C(C)(C)NC(=O)[C@@H](NC(=O)[C@H](CCCCNC(C)=O)NC(=O)[C@H](C)NC(=O)[C@H](CCCNC(=N)N)NC(=O)[C@@H](NC(=O)[C@H](CCCCN)NC(=O)[C@H](CCC(=O)O)NC(=O)[C@H](CCCNC(=N)N)NC(=O)CNC(=O)[C@H](CCC(=O)O)NC(=O)[C@H](CC(C)C)NC(C)=O)C(C)C)[C@@H](C)CC)[C@@H](C)O)C(=O)O)C(=O)O)C(=O)O)C(N)=O)C(=O)O` [compound 145] (Ac-LEGREKVRAK(Ac)I[Aib][Aib]EG[Nle]STFS[αMeK]RKK(Ac)[AEEA][AEEA][AEEA][AEEA][γGlu][γGlu][γGlu]K([γGlu-Palmitoyl])-NH2), in data set [1], the EC50 stood at 0.4 nM and the Emax amounted to 99%. In data set [2], the C0 was 3440 nM, the half-life is 5.4 h, the maximum concentration (Cmax) was determined as 1670 nM and the Tmax stood at 8 h. Further, the bioavailability in data set [2] came to 70%.

For `CCCCCCCCCCCCCCCCCC(=O)N[C@@H](CCC(=O)N[C@@H](CCC(=O)N[C@@H](CCC(=O)NCCCC[C@H](NC(=O)CCOCCOCCOCCOCCOCCOCCOCCOCCOCCOCCOCCOCCNC(=O)[C@H](CCCCNC(C)=O)NC(=O)[C@H](CCCCN)NC(=O)[C@H](CCCNC(=N)N)NC(=O)C(C)(C)NC(=O)[C@H](CO)NC(=O)[C@H](Cc1cccc2ccccc12)NC(=O)[C@@H](NC(=O)[C@H](CO)NC(=O)[C@H](CCCC)NC(=O)CNC(=O)[C@H](CCC(=O)O)NC(=O)C(C)(C)NC(=O)C(C)(C)NC(=O)[C@@H](NC(=O)[C@H](CCCCNC(C)=O)NC(=O)C(C)(C)NC(=O)[C@H](CCCNC(=N)N)NC(=O)[C@@H](NC(=O)[C@H](CCCCN)NC(=O)[C@H](CCC(=O)O)NC(=O)[C@H](CCCNC(=N)N)NC(=O)CNC(=O)[C@H](CCC(=O)O)NC(=O)[C@H](CC(C)C)NC(C)=O)C(C)C)[C@@H](C)CC)[C@@H](C)O)C(N)=O)C(=O)O)C(=O)O)C(=O)O` [compound 37] (Ac-LEGREKVR[Aib]K(Ac)I[Aib][Aib]EG[Nle]ST[1Nal]S[Aib]RKK(Ac)[PEG12]K([γGlu-γGlu-γGlu-Stearoyl])-NH2), the maximum response (Emax) in data set [1] was determined as 83%. In data set [2], the C0 is 5560 nM, the half-life is 2.55 h, the highest concentration (Cmax) was 1710 nM and the Tmax is 6 h. In data set [2], the bioavailability came out at 40%.

As to `CCCCCCCCCCCCCCCCCC(=O)N[C@@H](CCC(=O)NCCOCCOCC(=O)N[C@@H](CCC(=O)N[C@@H](CCC(=O)N[C@@H](CCC(=O)NCCOCCOCC(=O)NCCOCCOCC(=O)NCCCC[C@H](NC(=O)[C@H](CCCCN)NC(=O)[C@H](CCCCN)NC(=O)[C@H](CCCNC(=N)N)NC(=O)C(C)(C)NC(=O)[C@H](CO)NC(=O)[C@H](Cc1c[nH]c2ccccc12)NC(=O)[C@@H](NC(=O)[C@H](CO)NC(=O)[C@H](CCCC)NC(=O)CNC(=O)[C@H](CCC(=O)O)NC(=O)C(C)(C)NC(=O)C(C)(C)NC(=O)[C@@H](NC(=O)[C@H](CCCCNC(C)=O)NC(=O)[C@H](C)NC(=O)[C@H](CCCNC(=N)N)NC(=O)[C@@H](NC(=O)[C@H](CCCCN)NC(=O)[C@H](CCC(=O)O)NC(=O)[C@H](CCCNC(=N)N)NC(=O)CNC(=O)[C@H](CCC(=O)O)NC(=O)[C@H](CC(C)C)NC(C)=O)C(C)C)[C@@H](C)CC)[C@@H](C)O)C(N)=O)C(=O)O)C(=O)O)C(=O)O)C(=O)O` [compound 102] (Ac-LEGREKVRAK(Ac)I[Aib][Aib]EG[Nle]STWS[Aib]RKKK([AEEA-AEEA-γGlu-γGlu-γGlu-AEEA-γGlu-Stearoyl])-NH2), in data set [1], the EC50 is 0.08 nM and the Emax came out at 80%. Further, in data set [2], the C0 was 4250 nM, the half-life is 1.16 h, the Cmax was 1450 nM and the Tmax came to 8 h. Further, the bioavailability in data set [2] turned out to be 78%.

`CCCCCCCCCCCCCCCCCC(=O)N[C@@H](CCC(=O)N[C@@H](CCC(=O)N[C@@H](CCC(=O)NCCOCCOCC(=O)NCCOCCOCC(=O)NCCOCCOCC(=O)NCCCC[C@H](NC(=O)[C@H](CCCCN)NC(=O)[C@H](CCCNC(=N)N)NC(=O)C(C)(C)NC(=O)[C@H](CO)NC(=O)[C@H](Cc1c[nH]c2ccccc12)NC(=O)[C@@H](NC(=O)[C@H](CO)NC(=O)[C@H](CCCC)NC(=O)CNC(=O)[C@H](CCC(=O)O)NC(=O)C(C)(C)NC(=O)C(C)(C)NC(=O)[C@@H](NC(=O)[C@H](CCC(N)=O)NC(=O)[C@H](C)NC(=O)[C@H](CCCNC(=N)N)NC(=O)[C@@H](NC(=O)[C@H](CCCCN)NC(=O)[C@H](CCC(=O)O)NC(=O)[C@H](CCCNC(=N)N)NC(=O)CNC(=O)[C@H](CCC(=O)O)NC(=O)[C@H](CC(C)C)NC(C)=O)C(C)C)[C@@H](C)CC)[C@@H](C)O)C(N)=O)C(=O)O)C(=O)O)C(=O)O` [compound 74] (Ac-LEGREKVRAQI[Aib][Aib]EG[Nle]STWS[Aib]RKK([AEEA-AEEA-AEEA-γGlu-γGlu-γGlu-Stearoyl])-NH2): in data set [1], the EC50 came to 0.07 nM and the Emax is 85%. In data set [2], the C0 is 3000 nM, the half-life is 3.89 h, the highest level (Cmax) was 1630 nM and the Tmax stood at 7 h. Besides, the bioavailability in data set [2] came to 70%.
